Assay results as given in paper PMC3479967 (Evidence-based Complementary and Alternative Medicine : eCAM, 2012).

Assays:
[1] = target: T1, UGT2B17 (Homo sapiens, UniProt O75795); experiment: Inhibition of recombinant UGT2B17 activity (4-MU glucuronidation)
T1 sequence (O75795 24-530): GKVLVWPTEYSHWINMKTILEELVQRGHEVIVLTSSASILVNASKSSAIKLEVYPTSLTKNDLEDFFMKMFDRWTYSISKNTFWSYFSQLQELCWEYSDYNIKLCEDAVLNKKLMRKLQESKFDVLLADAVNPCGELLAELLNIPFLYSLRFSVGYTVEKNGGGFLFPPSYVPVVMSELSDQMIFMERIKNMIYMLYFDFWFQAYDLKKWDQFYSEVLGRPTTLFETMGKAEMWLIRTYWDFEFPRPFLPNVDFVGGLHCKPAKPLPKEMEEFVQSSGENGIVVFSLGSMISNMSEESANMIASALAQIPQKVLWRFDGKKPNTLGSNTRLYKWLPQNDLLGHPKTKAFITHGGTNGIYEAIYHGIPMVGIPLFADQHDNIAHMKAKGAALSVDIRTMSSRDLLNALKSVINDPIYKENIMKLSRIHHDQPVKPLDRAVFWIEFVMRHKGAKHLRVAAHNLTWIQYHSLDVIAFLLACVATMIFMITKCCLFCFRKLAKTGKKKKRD
Procedure: (§1) A panel of recombinant human UGT supersomes (UGT1A1, UGT1A3, UGT1A4, UGT1A6, UGT1A7, UGT1A8, UGT1A9, UGT1A10, UGT2B4, UGT2B7, UGT2B15, and UGT2B17) expressed in baculovirus-infected insect cells were purchased from BD Gentest Corp. (Woburn, MA, USA).
(§2) 4-MU, a nonselective substrate of UGTs, was used as probe substrate for all UGTs except UGT1A4. Incubations with each individual enzyme were conducted using conditions previously described. There was a 5 min preincubation step at 37°C before the reaction was started by addition of UDPGA. The incubation mixtures were then centrifuged at 20,500 ×g for 15 min to obtain the supernatant. Aliquots (20 μL) were then analyzed by HPLC. The HPLC system (SHIMADZU, Kyoto, Japan) consisted of an SCL-10A system controller, two LC-10AT pumps, a SIL-10A auto injector, and a SPD-10AVP UV detector. Chromatographic separation was achieved using a Kromasil ODS column (4.6 × 150 mm I.D., 5 μm particle size) at a flow rate of 1 mL/min and UV detection at 316 nm. The mobile phase consisted of 10 mM KH2PO4, pH 2.7 (A) and acetonitrile (B). The following gradient was applied at a flow rate of 1 mL/min: 0–4 min 80% A and 20% B, 4.1–8 min 50% A and 50% B, 8.1–12 min, 30% A and 70% B. All experiments were performed in two independent experiments in duplicate.
(§3) A typical incubation mixture contained recombinant human UGTs, 5 mM MgCl2, 5 mM UDPGA, 50 μg/mg protein alamethicin, 50 mM Tris-HCl buffer (pH 7.4), and various probe substrates of UGTs in the absence or presence of different concentrations of inhibitors. […] The final concentration of DMSO in the incubation system was 1% (v/v). […]
(§4) Inhibition data from experiments were graphically represented by Dixon plots. K i values were calculated by nonlinear regression using the equations for competitive inhibition (1), noncompetitive inhibition (2), or mixed inhibition (3), [22] […] The type of inhibition was determined from the enzyme inhibition models. Goodness of fit to kinetic and inhibition models was assessed from the F statistic, r ^2 values, parameter standard error estimates, and 95% confidence intervals. […]

[2] = target: T2, UGT1A9 (Homo sapiens, UniProt O60656); experiment: Inhibition of recombinant UGT1A9 activity (4-MU glucuronidation)
T2 sequence (O60656 26-530): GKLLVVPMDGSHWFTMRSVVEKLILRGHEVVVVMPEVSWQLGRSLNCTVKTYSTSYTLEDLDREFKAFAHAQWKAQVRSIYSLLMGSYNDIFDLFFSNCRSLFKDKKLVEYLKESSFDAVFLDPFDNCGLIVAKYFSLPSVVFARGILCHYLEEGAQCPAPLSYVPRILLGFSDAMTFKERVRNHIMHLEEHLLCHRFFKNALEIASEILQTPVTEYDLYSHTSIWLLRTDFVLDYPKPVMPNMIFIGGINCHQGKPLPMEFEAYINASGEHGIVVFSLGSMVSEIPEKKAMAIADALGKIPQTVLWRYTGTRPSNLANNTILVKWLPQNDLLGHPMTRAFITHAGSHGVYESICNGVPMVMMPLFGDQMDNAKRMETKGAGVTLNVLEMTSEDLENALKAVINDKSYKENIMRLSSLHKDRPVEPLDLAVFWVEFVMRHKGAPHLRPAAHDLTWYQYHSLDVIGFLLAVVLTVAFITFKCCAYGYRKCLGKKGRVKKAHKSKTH
Procedure: as §1, §2, §3, §4

IC50 [1]	IC50 [2]	SMILES
> 100 µM	> 100 µM	COc1ccc(-c2oc3c(CC=C(C)C)c(O[C@@H]4O[C@H](CO)[C@@H](O)[C@H](O)[C@H]4O)cc(O)c3c(=O)c2O)cc1 [Icariside I]
> 100 µM	1.5 ± 0.1 µM	COc1ccc(-c2oc3c(CC=C(C)C)c(O)cc(O)c3c(=O)c2O)cc1 [Icaritin]

SMILES	IC50 [1]	IC50 [2]
COc1ccc(-c2oc3c(CC=C(C)C)c(O[C@@H]4O[C@H](CO)[C@@H](O)[C@H](O)[C@H]4O)cc(O)c3c(=O)c2O[C@@H]2O[C@@H](C)[C@H](O)[C@@H](O)[C@H]2O)cc1 [Icariin]	> 100 µM	> 100 µM
